According to patent US3968233A, “α-Amino-γ-butyrolactones as sedatives” (priority 1975, dated 1976):
“Also recorded” adds a separate entry of the source.

Tests used:
[1] = Protective effect against strychnine (single injection); format: in vivo, mouse; details: 30 minutes before strychnine
Procedure: This type of antagonism was evaluated in the mouse in three ways, namely: (1) protection from death from one hypodermic injection of strychnine: (2) evaluation of the LD50 of strychnine in mice both treated and untreated with AP-28, and (3) influence on the time required to cause animals to die by slow intravenous perfusion of strychnine. […] Groups of six mice were used. (2) increasing amounts of strychnine sulfate were injected hypodermically. In two experiments 200 or 400 mg/kg of intraperitoneal AP-28 were given 30 minutes prior to strychnine injection and the LD50 was calculated. The following results were obtained (95-percent confidence limits): […]

[2] = Subacute toxicity, daily oral dosing for 6 consecutive days; format: in vivo, rat; details: 500 mg/kg daily for 6 consecutive days
Procedure: Accordingly, 8 rats were given 500 mg/kg daily for 6 consecutive days.

[3] = Acute toxicity of AP-28 in the rat; format: in vivo, rat (Wistar-Morini Strain); details: for Died/treated: in 24 hours; for Remarks: oral
Procedure: AP-28 was administered to adult rats (Wistar-Morini Strain) of both sexes after fasting overnight. It was administered in an aqueous 1-percent suspension of tragacanth gum orally by gastric probe or intraperitoneally.

[4] = oral (gastric probe), 250 mg/kg
[5] = oral (gastric probe), 500 mg/kg
[6] = oral (gastric probe), 1000 mg/kg
[7] = oral (gastric probe), 1500 mg/kg
[8] = oral (gastric probe), 2000 mg/kg

CCCCOC(=O)NC1CCOC1=O (stereo not drawn) [AP-28, α-n-butoxycarbonyl-amino-γ-butyrolactone]
Animals with convulsions/treated ([1]; 250 mg/kg i.p.): 7/7
Died/treated ([1]; 250 mg/kg i.p.): 1/7
Time of death ([1]; 250 mg/kg i.p., extreme values): 33 min
Animals with convulsions/treated ([1]; 500 mg/kg i.p.): 3/8
Died/treated ([1]; 500 mg/kg i.p.): 0/8
Animals with convulsions/treated ([1]; 500 mg/kg os): 5/9
Died/treated ([1]; 500 mg/kg os): 0/9
sedative effect or other abnormal symptoms [2]: No sedative effect or other abnormal symptoms were observed
tendency to accumulate in the organism [2]: no tendency for AP-28 to accumulate in the organism
loss of the righting reflex ([3]; highest oral dose): did not cause the loss of the righting reflex
Remarks: sedated for ([3]; i.p., 250 mg/kg): about 15 minutes
Under hypnosis/treated (loss of the righting reflex) ([3]; i.p., 250 mg/kg): 0/4
Died/treated ([3]; i.p., 250 mg/kg): 0/4
Remarks: sedated for ([3]; i.p., 500 mg/kg): about 20 minutes
Under hypnosis/treated (loss of the righting reflex) ([3]; i.p., 500 mg/kg): 0/4
Died/treated ([3]; i.p., 500 mg/kg): 0/4
loss of the righting reflex ([3]; i.p., 1 g/kg): the loss of the righting reflex occurred
Remarks: under hypnosis for ([3]; i.p., 1000 mg/kg): about 15 minutes
Under hypnosis/treated (loss of the righting reflex) ([3]; i.p., 1000 mg/kg): 4/4
Died/treated ([3]; i.p., 1000 mg/kg): 0/4
Remarks: under hypnosis for ([3]; i.p., 1500 mg/kg): about 30 minutes
Under hypnosis/treated (loss of the righting reflex) ([3]; i.p., 1500 mg/kg): 4/4
Died/treated ([3]; i.p., 1500 mg/kg): 0/4
Remarks: under hypnosis for ([3]; i.p., 2000 mg/kg): about 60 minutes
Under hypnosis/treated (loss of the righting reflex) ([3]; i.p., 2000 mg/kg): 4/4
Died/treated ([3]; i.p., 2000 mg/kg): 0/4
toxicity ([3]; laboratory animals, summary statement): toxicity is nearly negligible
Under hypnosis/treated (loss of the righting reflex) [3, 4]: 0/4
Died/treated [3, 4]: 0/4
Under hypnosis/treated (loss of the righting reflex) [3, 5]: 0/4
Died/treated [3, 5]: 0/4
Under hypnosis/treated (loss of the righting reflex) [3, 6]: 0/4
Died/treated [3, 6]: 0/4
Under hypnosis/treated (loss of the righting reflex) [3, 7]: 0/4
Died/treated [3, 7]: 0/4
Under hypnosis/treated (loss of the righting reflex) [3, 8]: 0/4
Died/treated [3, 8]: 0/4
Remarks ([3]; 250 mg/kg): No particular effect
Remarks ([3]; 500 mg/kg): did not cause any particular effect
Remarks ([3]; 1000 mg/kg): Slightly sedated; also recorded: a mild sedative effect
Remarks ([3]; 1500 mg/kg): Sedated
Remarks ([3]; 2000 mg/kg (highest oral dose), 2000 mg/kg): produced a sedative effect; also recorded: Very sedated
duration of sedative and hypnotic effects ([3]; rat): not long lasting and the animal returned to normal
LD0 ([3]; rat, oral or intraperitoneal): more than 2 g/kg
